Assay [1] has as its target T1, CDK2/Cyclin E (Homo sapiens, UniProt P24941).
T1 construct: purchased Eurofins 14-475
Nature of the assay: CDK2/Cyclin E enzymatic phosphorylation assay (Caliper mobility shift). Further: 1.0 mM ATP or ATP Km. Format: biochemical. The note with it: read-out: Enzyme CDK2/cyclin E IC50. The procedure: (§1) Reactions proceeded until between 10% to 20% total peptides were phosphorylated at room temperature (25° C.) and were terminated with 35 mM 2,2′,2″,2′″-(ethane-1,2-diyldinitrilo)tetraacetic acid (EDTA). Product was detected using the Caliper mobility shift detection method where the phosphorylated peptide (product) and substrate were electrophoretically separated and measured. Percent activity was plotted against log concentration of compound and points to generate an apparent IC50.

Assay [2] concerns the target T2, CDK1/Cyclin B1 (Homo sapiens, UniProt P06493).
T2 construct: GST; purchased BPS 40454
In words: CDK1/Cyclin B1 enzymatic phosphorylation assay (Caliper mobility shift). Format: biochemical. The note with it: read-out: Enzyme CDK1/cyclin B1 IC50. How it is done: as §1

Molecules are shown by their SMILES.

T2 sequence (P06493 whole entry): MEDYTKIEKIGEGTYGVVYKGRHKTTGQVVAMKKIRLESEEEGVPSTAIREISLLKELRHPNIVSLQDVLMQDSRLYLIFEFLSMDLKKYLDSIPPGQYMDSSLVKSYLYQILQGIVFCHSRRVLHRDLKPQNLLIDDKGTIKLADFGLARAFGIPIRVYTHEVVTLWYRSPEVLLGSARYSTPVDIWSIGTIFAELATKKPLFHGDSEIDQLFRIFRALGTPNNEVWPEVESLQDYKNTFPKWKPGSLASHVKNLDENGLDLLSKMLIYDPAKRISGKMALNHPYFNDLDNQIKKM
T2 sequence (P14635 whole entry partner): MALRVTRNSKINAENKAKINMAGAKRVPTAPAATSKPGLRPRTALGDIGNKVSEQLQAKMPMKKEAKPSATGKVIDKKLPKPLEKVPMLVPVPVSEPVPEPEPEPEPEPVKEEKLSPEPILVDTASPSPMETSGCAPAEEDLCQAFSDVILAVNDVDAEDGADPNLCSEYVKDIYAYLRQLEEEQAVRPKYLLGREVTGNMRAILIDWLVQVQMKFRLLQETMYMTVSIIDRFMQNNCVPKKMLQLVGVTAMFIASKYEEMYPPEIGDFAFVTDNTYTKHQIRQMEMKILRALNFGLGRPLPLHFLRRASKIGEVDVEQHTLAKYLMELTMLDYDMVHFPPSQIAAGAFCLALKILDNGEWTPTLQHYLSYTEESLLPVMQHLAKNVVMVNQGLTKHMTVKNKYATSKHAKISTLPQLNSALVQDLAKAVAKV

With `CCc1cc(Nc2cnc3cnn([C@@H](C)c4cccnc4)c3n2)n[nH]1` [Example 32, (S)-N-(5-ethyl-1H-pyrazol-3-yl)-1-(1-(pyridin-3-yl)ethyl)-1H-pyrazolo[3,4-b]pyrazin-6-amine], the IC50 in assay [1] was found to be 0.0019 µM; in assay [2] it was 0.465 µM.

As to `Cc1cc(Nc2cnc3cnn([C@@H](C)C4CCOCC4)c3n2)n[nH]1` [Example 54, (S)-N-(5-methyl-1H-pyrazol-3-yl)-1-(1-(tetrahydro-2H-pyran-4-yl)ethyl)-1H-pyrazolo[3,4-b]pyrazin-6-amine], the figures for the IC50 in assay [1] and in assay [2] were 0.026 µM and 3.67 µM, respectively.

On to `C[C@@H](c1ccccn1)n1ncc2ncc(Nc3cc(C#N)[nH]n3)nc21` [Example 25, (S)-3-((1-(1-(pyridin-2-yl)ethyl)-1H-pyrazolo[3,4-b]pyrazin-6-yl)amino)-1H-pyrazole-5-carbonitrile], for which the results for the IC50 in assay [1] and in assay [2] were 0.0761 µM and 10 µM, respectively.

For `Fc1cccc(Cn2ncc3ncc(Nc4cc(C5COC5)[nH]n4)nc32)c1` [Example 46, 1-(3-fluorobenzyl)-N-(5-(oxetan-3-yl)-1H-pyrazol-3-yl)-1H-pyrazolo[3,4-b]pyrazin-6-amine], the IC50 in assay [1] stood at 0.0079 µM; in assay [2], 1.06 µM.

In the case of `Cc1nc2cnn(Cc3cccnc3)c2nc1Nc1cc(C(C)C)[nH]n1` [Example 18, N-(5-isopropyl-1H-pyrazol-3-yl)-5-methyl-1-(pyridin-3-ylmethyl)-1H-pyrazolo[3,4-b]pyrazin-6-amine], the figures for the IC50 in assay [1] and in assay [2] were 0.0151 µM and 3.23 µM, respectively.

`Cc1nc2cnn(CC3CCOCC3)c2nc1Nc1cc(C(C)C)[nH]n1` [Example 17, N-(5-isopropyl-1H-pyrazol-3-yl)-5-methyl-1-((tetrahydro-2H-pyran-4-yl)methyl)-1H-pyrazolo[3,4-b]pyrazin-6-amine]: the values for the IC50 in assay [1] and in assay [2] were 0.0148 µM and 1.65 µM, respectively.

As for `C[C@@H](C1CCOCC1)n1ncc2ncc(Nc3cc(C4COC4)[nH]n3)nc21` [Example 41, (S)-N-(5-(oxetan-3-yl)-1H-pyrazol-3-yl)-1-(1-(tetrahydro-2H-pyran-4-yl)ethyl)-1H-pyrazolo[3,4-b]pyrazin-6-amine], the IC50 in assay [1] is 0.0017 µM; in assay [2], 0.334 µM.

Consider `Fc1cncc(Cn2ncc3ncc(Nc4cc(C5COC5)[nH]n4)nc32)c1` [Example 50, 1-((5-fluoropyridin-3-yl)methyl)-N-(5-(oxetan-3-yl)-1H-pyrazol-3-yl)-1H-pyrazolo[3,4-b]pyrazin-6-amine], for which the IC50 was 0.0448 µM in assay [1] and 3.06 µM in assay [2].

On to `C[C@@H](c1cccnc1)n1ncc2ncc(Nc3cc(C4COC4)[nH]n3)nc21` [Example 33, (S)-N-(5-(oxetan-3-yl)-1H-pyrazol-3-yl)-1-(1-(pyridin-3-yl)ethyl)-1H-pyrazolo[3,4-b]pyrazin-6-amine], for which the IC50 in assay [1] came to 0.0064 µM; in assay [2] it was 1.42 µM.

`CC(C)c1cc(Nc2cnc3cnn(CC4CCN(C)CC4)c3n2)n[nH]1` [Example 64, N-(5-isopropyl-1H-pyrazol-3-yl)-1-((1-methylpiperidin-4-yl)methyl)-1H-pyrazolo[3,4-b]pyrazin-6-amine]: the IC50 was determined as 0.056 µM in assay [1] and 2.08 µM in assay [2].

Turning to `CC[C@@H]([C@H](C)O)n1ncc2ncc(Nc3cc(C(C)C)[nH]n3)nc21` (single isomer, unassigned) [Example 13, (2S,3S)-3-(6-((5-isopropyl-1H-pyrazol-3-yl)amino)-1H-pyrazolo[3,4-b]pyrazin-1-yl)pentan-2-ol or (2S,3R)-3-(6-((5-isopropyl-1H-pyrazol-3-yl)amino)-1H-pyrazolo[3,4-b]pyrazin-1-yl)pentan-2-ol], the IC50 in assay [1] came to 0.0023 µM; in assay [2], 0.907 µM.

In the case of `Cc1nn(Cc2cccnc2)c2nc(Nc3cc(C(C)C)[nH]n3)cnc12` [Example 7, N-(5-isopropyl-1H-pyrazol-3-yl)-3-methyl-1-(pyridin-3-ylmethyl)-1H-pyrazolo[3,4-b]pyrazin-6-amine], the results for the IC50 in assay [1] and in assay [2] were 0.0013 µM and 0.234 µM, respectively.

Consider `CC(C)c1cc(Nc2cnc3cnn(C[C@@H]4CCCOC4)c3n2)n[nH]1` (single isomer, unassigned) [Example 10, (S)-N-(5-isopropyl-1H-pyrazol-3-yl)-1-((tetrahydro-2H-pyran-3-yl)methyl)-1H-pyrazolo[3,4-b]pyrazin-6-amine or (R)-N-(5-isopropyl-1H-pyrazol-3-yl)-1-((tetrahydro-2H-pyran-3-yl)methyl)-1H-pyrazolo[3,4-b]pyrazin-6-amine], for which the IC50 in assay [1] worked out at 0.0005 µM; in assay [2], 0.147 µM.

Regarding `CC(=O)N1CCC[C@H](n2ncc3ncc(Nc4cc(C(C)C)[nH]n4)nc32)C1` [Example 59, (S)-1-(3-(6-((5-isopropyl-1H-pyrazolo-3-yl)amino)-1H-pyrazolo[3,4-b]pyrazin-1-yl)piperidin-1-yl)ethan-1-one], the IC50 turned out to be 0.0148 µM in assay [1] and 2.37 µM in assay [2].

For the compound `c1cncc(Cn2ncc3ncc(Nc4cc(C5COC5)[nH]n4)nc32)c1` [Example 34, N-(5-(oxetan-3-yl)-1H-pyrazol-3-yl)-1-(pyridin-3-ylmethyl)-1H-pyrazolo[3,4-b]pyrazin-6-amine], the IC50 in assay [1] came to 0.0108 µM; in assay [2], 1.9 µM.

In the case of `Cc1cc(Nc2cnc3cnn([C@@H](C)c4cccnc4F)c3n2)n[nH]1` [Example 56, (S)-1-(1-(2-fluoropyridin-3-yl)ethyl)-N-(5-methyl-1H-pyrazol-3-yl)-1H-pyrazolo[3,4-b]pyrazin-6-amine], the IC50 in assay [1] is 0.003 µM; in assay [2], 0.709 µM.

`CC(C)c1cc(Nc2cnc3cnn([C@H](C)c4cccnc4)c3n2)n[nH]1` [Example 40, (R)-N-(5-isopropyl-1H-pyrazol-3-yl)-1-(1-(pyridin-3-yl)ethyl)-1H-pyrazolo[3,4-b]pyrazin-6-amine]: the IC50 was determined as 0.0003 µM in assay [1] and 0.093 µM in assay [2].

On to `CC(C)c1cc(Nc2cnc3cnn(C[C@H]4CCCOC4)c3n2)n[nH]1` (single isomer, unassigned) [Example 9, (R)-N-(5-isopropyl-1H-pyrazol-3-yl)-1-((tetrahydro-2H-pyran-3-yl)methyl)-1H-pyrazolo[3,4-b] pyrazin-6-amine or (S)-N-(5-isopropyl-1H-pyrazol-3-yl)-1-((tetrahydro-2H-pyran-3-yl)methyl)-1H-pyrazolo[3,4-b]pyrazin-6-amine], for which the IC50 in assay [1] came out at 0.0006 µM; in assay [2], 0.144 µM.

Consider `C[C@@H](c1cc(Nc2cnc3cnn(CC4CCOCC4)c3n2)n[nH]1)C(F)F` (single isomer, unassigned) [Example 21], for which the IC50 was found to be 0.0054 µM in assay [1] and 0.595 µM in assay [2].

On to `C[C@@H](c1ccccc1)n1ncc2ncc(Nc3cc(C4COC4)[nH]n3)nc21` [Example 42, (S)-N-(5-(oxetan-3-yl)-1H-pyrazol-3-yl)-1-(1-phenylethyl)-1H-pyrazolo[3,4-b]pyrazin-6-amine], for which the results for the IC50 in assay [1] and in assay [2] were 0.0023 µM and 0.592 µM, respectively.

Turning to `C[C@@H](c1cccnc1Cl)n1ncc2ncc(Nc3cc(C#N)[nH]n3)nc21` [Example 24, (S)-3-((1-(1-(2-chloropyridin-3-yl)ethyl)-1H-pyrazolo[3,4-b]pyrazin-6-yl)amino)-1H-pyrazole-5-carbonitrile], the IC50 is 0.0203 µM in assay [1] and 3.33 µM in assay [2].

For the compound `Cc1cc(Nc2cnc3cnn([C@@H](C)c4cc(F)ccn4)c3n2)n[nH]1` (single isomer, unassigned) [Example 19, (S)-1-(1-(4-fluoropyridin-2-yl)ethyl)-N-(5-methyl-1H-pyrazol-3-yl)-1H-pyrazolo[3,4-b]pyrazin-6-amine or (R)-1-(1-(4-fluoropyridin-2-yl)ethyl)-N-(5-methyl-1H-pyrazol-3-yl)-1H-pyrazolo[3,4-b]pyrazin-6-amine], the IC50 was found to be 0.0045 µM in assay [1] and 1.38 µM in assay [2].

In the case of `C[C@@H](c1cccnc1F)n1ncc2ncc(Nc3cc(C#N)[nH]n3)nc21` [Example 22, (S)-3-((1-(1-(2-fluoropyridin-3-yl)ethyl)-1H-pyrazolo[3,4-b]pyrazin-6-yl)amino)-1H-pyrazole-5-carbonitrile], the IC50 is 0.0088 µM in assay [1] and 3.46 µM in assay [2].

As to `CC(=O)N1CCC(n2ncc3ncc(Nc4cc(C(C)C)[nH]n4)nc32)CC1` [Example 58, 1-(4-(6-((5-isopropyl-1H-pyrazol-3-yl)amino)-1H-pyrazolo[3,4-b]pyrazin-1-yl)piperidin-1-yl)ethan-1-one], the IC50 in assay [1] is 0.0035 µM; in assay [2], 0.237 µM.

For the compound `C[C@@H](c1ccc(F)cc1)n1ncc2ncc(Nc3cc(C4COC4)[nH]n3)nc21` [Example 53, (S)-1-(1-(4-fluorophenyl)ethyl)-N-(5-(oxetan-3-yl)-1H-pyrazol-3-yl)-1H-pyrazolo[3,4-b]pyrazin-6-amine], the IC50 in assay [1] was 0.0019 µM; in assay [2], 0.33 µM.

As to `C[C@H](c1cc(Nc2cnc3cnn(CC4CCOCC4)c3n2)n[nH]1)C(F)F` (single isomer, unassigned) [Example 20], the results for the IC50 in assay [1] and in assay [2] were 0.0074 µM and 1.01 µM, respectively.

Regarding `c1nc2cnn(CC3CCOCC3)c2nc1Nc1cc(C2COC2)[nH]n1` [Example 35, N-(5-(oxetan-3-yl)-1H-pyrazol-3-yl)-1-((tetrahydro-2H-pyran-4-yl)methyl)-1H-pyrazolo[3,4-b]pyrazin-6-amine], the figures for the IC50 in assay [1] and in assay [2] were 0.0113 µM and 0.877 µM, respectively.

With `CC(C)c1cc(Nc2cnc3cnn(C[C@@H](C)CO)c3n2)n[nH]1` [Example 60, (R)-3-(6-((5-isopropyl-1H-pyrazol-3-yl)amino)-1H-pyrazolo[3,4-b]pyrazin-1-yl)-2-methylpropan-1-ol], the IC50 in assay [1] is 0.0079 µM; in assay [2], 1.57 µM.
